# Assay results: patent publication US7479385B2, “Sugar kinases with expanded substrate specificity and their use” (Wisconsin Alumni Research Foundation, priority 2003, dated 2009)
# How the values were obtained:
# [1] = target: T1, E. coli GalK M173L mutant (Escherichia coli, UniProt P0A6T3, M173L); test: Substrate screen / percent conversion of 45 sugars, M173L; assay type: biochemical
# T1 construct: His-tag (concluded from Ni-NTA purification and vector pET15b); made in house
# Excerpt: (§1) Characterization of GalK Mutants. […] The mutant enzymes were purified by using metal affinity chromatography on Ni-NTA Spin Columns (QIAGEN, Valencia, Calif.) and fractions containing homogenous protein were collected, concentrated and quantified using the Bradford protein assay. The DNS assay was used to assess the substrate specificity of the purified GalK mutants as previously described. […] For each sugar, the DNS assay was used to monitor the reaction progress and control assays in the absence of enzyme or sugar were performed in parallel. Standard curves for each sugar were prepared as described. To assess general percent conversion, each reaction contained 15.0 (M enzyme, 8 mM sugar, 14 mM ATP and 3.5 mM MgCl2. The reactions were incubated at 37° C. for 3 hrs after which the reactions were quenched with MeOH, centrifuged (10 min, 12,000 rpm) and then the supernatant (diluted 20-fold) submitted for LC-MS and MS/MS analysis. For monosaccharide kinetic data determination, the sugar concentration was varied over a range of 1-8 mM, under saturating ATP (14 mM). Reaction progress was assessed via the DNS assay, wherein a change in absorbance at 575 nm as a function of time was obtained and the initial velocity determined by the slope of the linear phase in the progress curve. The kinetic data was analyzed using Enzyme Kinetics Module software (SSPS, Inc., Chicago, Ill.) as previously described.
# (§2) Characterization of Engineered E. coli GalK Mutants.
# [2] = target: T2, E. coli GalK Y371H mutant (Escherichia coli, UniProt P0A6T3, Y371H); assay type: biochemical
# T2 construct: His-tag (concluded from Ni-NTA purification and vector pET15b); made in house; host or cells: E. coli BL21-Gold (DE3), vector pET15b
# Excerpt: as §1, §2
# wild-type E. coli GalK [3] = target: T3, wild-type E. coli GalK (Escherichia coli, UniProt P0A6T3); assay type: biochemical
# T3 construct: made in house
# T3 sequence (P0A6T3 1-382): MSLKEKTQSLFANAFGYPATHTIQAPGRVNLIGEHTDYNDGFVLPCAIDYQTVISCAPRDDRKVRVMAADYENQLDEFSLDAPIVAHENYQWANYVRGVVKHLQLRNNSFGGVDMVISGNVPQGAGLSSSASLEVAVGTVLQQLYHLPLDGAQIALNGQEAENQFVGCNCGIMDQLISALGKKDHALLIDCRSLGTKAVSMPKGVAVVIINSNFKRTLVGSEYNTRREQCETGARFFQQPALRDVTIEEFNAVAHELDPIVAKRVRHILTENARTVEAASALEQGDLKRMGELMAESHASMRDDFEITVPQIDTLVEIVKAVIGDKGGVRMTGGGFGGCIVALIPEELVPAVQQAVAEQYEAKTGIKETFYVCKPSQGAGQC
# Excerpt: as §1, §2
# [4] = target: T4, E. coli double M173L-Y371H mutant GalK (Escherichia coli, UniProt P0A6T3, M173L/Y371H); test: Substrate screen / percent conversion of 45 sugars, M173L-Y371H; assay type: biochemical; conditions: for in vitro conversion by M173L-Y371H: in 2 hrs
# T4 construct: His-tag (concluded from Ni-NTA purification and vector pET15b); made in house
# Excerpt: as §1, with “The reactions were incubated at 37° C. for 3 hrs after which the reactions were quenched with MeOH, centrifuged (10 min, 12,000 rpm) and then the supernatant (diluted 20-fold) submitted for LC-MS and MS/MS analysis.” left out
# as §2
# Y371H-M173L GalK = target: T5, Y371H-M173L GalK (Escherichia coli, UniProt P0A6T3, M173L/Y371H); test: In vivo conversion of fed unnatural sugars to sugar-1-phosphates in E. coli host overexpressing GalK double mutant; assay type: cell-based; conditions: sugar fed at 4 mM to E. coli overexpressing Y371H-M173L GalK, 16° C., 16 hr; fluorescence HPLC after labelling with 50
# T5 construct: His-tag (concluded: same plasmid pGalKMLYH in pET-15b whose product was purified on Ni-NTA); expressed in transfected cells; host or cells: E. coli host carrying pGalKMLYH (pET-15b), IPTG-induced at 16 °C
# Excerpt: FIG. 9. In vivo GalK-catalyzed sugar-1-phosphate production. (a) Experimental overview using 6-azido-6-deoxy-D-galactose (22) as an example: 22 is fed to an E. coli host expressing the M173L-Y371H GalK double mutant and the reactants and products subsequently labeled using a […] with the fluorescent tag 50. (b) HPLC chromatographs of bioconversions: i)22 with Y371H-M173L GalK; ii)46 with Y371H-M173L GalK; iii) 22 with wild-type GalK. MS: 50, calculated for C20H25N3O3S 387.2, found m/z 386.1 [M−H]^−; 51, calculated for C26H37N6O11PS 672.2, found m/z 671.2 [M−H]^−; 52, calculated for C26H36N6O8S 592.2, found m/z 591.2 [M−H]
# In Vivo Conversion Analysis. […] The reaction mixture was subsequently centrifuged to remove CuI and the supernatant (diluted 2-fold) directly analyzed by HPLC and LC-MS calculated for C26H37N6O11PS 672.20, found m/z […] 671.20.
# To assess the Y371H-M173L GalK-catalyzed in vivo production of unnatural sugar-1-phosphates (FIG. 9a), the unnatural sugars (22 or 46, 4 mM final concentration) were fed to an E. coli host (40 mL culture) which overexpressed the promiscuous GalK. After a designated time, the extracts were analyzed via the specific attachment of a fluorescent tag (50), to both starting material (22 or 46) and desired sugar-1-phosphate products, using 1,3-dipolar cycloaddition. […]
# wild-type E. coli GalK [5] = target: T3, wild-type E. coli GalK; test: Kinetics and substrate specificity of wild-type GalK with sugar substrates (DNS assay), Table 1; assay type: biochemical
# GalK variant Y371H = target: T6, GalK variant Y371H (Escherichia coli, UniProt P0A6T3, Y371H); test: Preparative phosphorylation of L-altrose by GalK Y371H, conversion by DNS assay; assay type: biochemical, E. coli; conditions: within four hours, 37° C., Y371H 150 μg mL^−1
# T6 construct: His-tag (concluded from Ni-NTA purification and vector pET15b); made in house; host or cells: E. coli BL21-Gold (DE3), vector pET15b
# Protocol: Preparative phosphorylation of L-altrose and product characterization. […] To this solution, ATP (125 mg, 0.23 mmol), MgCl2.6H2O (15.3 mg, 0.07 mmol) were added, the mixture incubated at 37° C. for 5 min, the reaction initiated via the addition of enzyme (Y371H) to a final concentration of 150 μg mL^−1 and reaction progress monitored by TLC. After completion, the mixture was diluted 5-fold in ddH2O and applied to a 200 mL anion exchange column (Q-Sepharose fast flow, Amersham, Piscataway, N.J.). The column was eluted with a gradient of 0-400 mM NaCl and the active fraction was collected and evaporated under reduced pressure. The crude product was desalted on a P-2 gel filtration column (The Nest Group, Southboro, Mass.) to give 16.1 mg of purified product (yield: 52%). [α]D=3.5° (c=1, H2O) ^1H NMR (D2O): 5.48 (dd, J=8.6, 1.8 Hz, 1H), 4.14 (dd, 5.3, 3.3 Hz, 1H), 3.99 (m, 1H), 3.98 (dd, J=4.3, 1.8 Hz, 1H), 3.91 (d, J=3.3, 1H), 3.89 (m, 1H), 3.84 (dd, J=12.1, 7.8 Hz, 1H); ^13C NMR (D2O): 94.10, 76.23, 70.70, 69.99, 65.68, 62.21; ^31P NMR (D2O): 3.77; MS: calculated for C6H13O9P 260.0, found m/z 259.0 [M−H]^−.
# Confirmation of L-sugar conversion. […] To confirm the evolved enzyme retains regio- and stereoselectivity with L-sugar substrates, a representative L-sugar reaction product was further characterized. […]
# GalK mutant Y371H = GalK mutant Y371H (Escherichia coli, UniProt P0A6T3, Y371H); conditions: DNS assay and thin layer chromatography
# L. lactis wild-type GalK = target: T7, L. lactis wild-type GalK (Lactococcus lactis subsp. lactis, UniProt Q9R7D7); conditions: in vitro; cited from earlier work
# T7 sequence (Q9R7D7 1-399): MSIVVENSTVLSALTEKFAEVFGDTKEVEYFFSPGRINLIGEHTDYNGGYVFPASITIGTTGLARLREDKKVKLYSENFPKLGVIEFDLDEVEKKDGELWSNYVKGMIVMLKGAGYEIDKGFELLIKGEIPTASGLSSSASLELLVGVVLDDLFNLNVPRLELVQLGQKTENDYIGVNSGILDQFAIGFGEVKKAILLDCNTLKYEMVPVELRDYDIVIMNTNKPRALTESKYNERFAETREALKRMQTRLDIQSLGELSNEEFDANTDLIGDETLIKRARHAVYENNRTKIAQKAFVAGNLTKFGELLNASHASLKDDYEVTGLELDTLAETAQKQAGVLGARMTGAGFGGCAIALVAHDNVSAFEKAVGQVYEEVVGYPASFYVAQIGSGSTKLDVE
# T4 sequence (P0A6T3 whole entry M173L/Y371H): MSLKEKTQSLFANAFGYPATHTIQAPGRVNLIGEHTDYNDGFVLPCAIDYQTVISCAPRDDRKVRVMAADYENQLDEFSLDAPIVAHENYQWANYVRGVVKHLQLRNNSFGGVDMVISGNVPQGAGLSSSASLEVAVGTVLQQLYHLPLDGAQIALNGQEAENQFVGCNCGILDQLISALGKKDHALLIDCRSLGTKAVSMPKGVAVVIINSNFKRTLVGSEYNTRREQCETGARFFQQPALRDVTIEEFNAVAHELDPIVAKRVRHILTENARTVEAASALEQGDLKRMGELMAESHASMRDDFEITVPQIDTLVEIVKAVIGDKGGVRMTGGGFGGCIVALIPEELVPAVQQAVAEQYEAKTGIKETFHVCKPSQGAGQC
# T2 sequence (P0A6T3 whole entry Y371H): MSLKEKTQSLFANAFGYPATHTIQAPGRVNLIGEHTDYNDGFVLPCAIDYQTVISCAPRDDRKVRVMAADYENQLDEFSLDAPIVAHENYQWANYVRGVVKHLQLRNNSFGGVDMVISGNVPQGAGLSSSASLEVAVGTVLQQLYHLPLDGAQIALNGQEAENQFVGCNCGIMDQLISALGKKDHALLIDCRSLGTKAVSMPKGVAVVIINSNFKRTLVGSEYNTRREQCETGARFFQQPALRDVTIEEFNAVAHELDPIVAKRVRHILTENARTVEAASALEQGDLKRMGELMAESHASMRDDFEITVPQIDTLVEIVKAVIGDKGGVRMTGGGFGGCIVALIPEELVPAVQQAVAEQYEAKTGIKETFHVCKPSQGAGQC
# T5 sequence (P0A6T3 whole entry M173L/Y371H): as the sequence (P0A6T3 whole entry M173L/Y371H) above
# T1 sequence (P0A6T3 whole entry M173L): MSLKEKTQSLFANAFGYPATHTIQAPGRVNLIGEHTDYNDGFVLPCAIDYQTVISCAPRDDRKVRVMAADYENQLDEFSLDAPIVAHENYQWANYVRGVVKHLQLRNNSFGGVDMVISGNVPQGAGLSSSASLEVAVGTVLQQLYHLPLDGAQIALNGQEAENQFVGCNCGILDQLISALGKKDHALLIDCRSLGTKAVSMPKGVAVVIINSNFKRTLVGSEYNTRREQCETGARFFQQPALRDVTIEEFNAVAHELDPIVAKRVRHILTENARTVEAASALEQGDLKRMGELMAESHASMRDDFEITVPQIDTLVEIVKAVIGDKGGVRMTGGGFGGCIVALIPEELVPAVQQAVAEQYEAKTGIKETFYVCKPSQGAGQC
# GalK mutant Y371H, sequence (P0A6T3 whole entry Y371H): as the sequence (P0A6T3 whole entry Y371H) above
# T6 sequence (P0A6T3 whole entry Y371H): as above
Structure (SMILES),substrate of M173L (in words) [1],substrate of Y371H (in words) [2],substrate of wild-type E. coli GalK (in words) (wild-type E. coli GalK [3]),kinase activity of M173L-Y371H double mutant (in words) [4],in vitro yield (conversion) quoted for comparison with in vivo [4] [%],in vitro conversion by M173L-Y371H [4] [%],in vivo conversion to sugar-1-phosphate (Y371H-M173L GalK) [%],substrate of wild-type GalK (in words) (wild-type E. coli GalK [5]),conversion of L-altrose (GalK variant Y371H) [%],kinase activity / turnover by GalK Y371H (in words) (GalK mutant Y371H),conversion / activity with L. lactis wild-type GalK (in words) (L. lactis wild-type GalK)
"[N-]=[N+]=NC[C@@H](O)[C@H](O)[C@H](O)[C@@H](O)C=O [6-azido-6-deoxy-D-galactose (22), 6-azido-6-deoxy-D-galactose]",failed,failed,not a substrates,accept,~50,> 50,~69,,,,
"O=C[C@H](O)[C@@H](O)[C@@H](O)[C@@H](O)CO [L-Alt (16), L-altrose]",,,,,,,,failed as wild-type GalK substrates,91,substantial degree of kinase activity,
"[N-]=[N+]=NC[C@@H](O)[C@@H](O)[C@H](O)[C@@H](O)C=O [6-azido-6-deoxy-D-glucose (46), 6-azido-6-deoxy-D-glucose]",failed,failed,not a substrates,accept,~50,~15,~15,,,,
"[N-]=[N+]=N[C@H]([C@H](O)[C@@H](O)C=O)[C@H](O)CO [4-azido-4-deoxy-D-galactose (21), 4-azido-4-deoxy-D-galactose]",,,not a substrates,accept,,,,,,,in vitro conversion
